The values below come from US12673074B2, “Mycobacterium for use in cancer therapy” (TONRON INTERNATIONAL LIMITED, priority 2020, dated 2026).

Assay [1] deals with advanced pancreatic cancer. The experiment in a line: Randomised, open-label, phase II study of gemcitabine with and without IMM-101 (IMAGE 1). Type of assay: in vivo, human. The text has this: This study is described in U.S. Pat. No. 8,617,520 assigned to the applicant, and the results were published by Dalgeish et al, in the paper entitled “Randomised, open-label, phase II study of gemcitabine with and without IMM-101 for advanced pancreatic cancer”. [Br. J. Cancer. 2016 Sep. 27; 115(7): 789-796] and also as “Long term survival in IMAGE 1 (Immune Modulation And Gemcitabine Evaluation 1), a randomized, open-label phase II trial comparing gemcitabine with and without IMM-101 in advanced pancreatic cancer”; Angus George Dalgleish and The IMAGE 1 Trial Investigators; Journal of Clinical Oncology 2015 33:15_suppl, 3051-3051.
In summary, this study compared, in patients with advanced pancreatic cancer, the effects of gemcitabine (GEM) in combination with IMM-101 (a suspension of heat-killed whole cell M. obuense in borate-buffered saline) to gemcitabine alone on: Safety and tolerability, including QoL; clinical signs and symptoms of disease; Overall survival (OS), progression-free survival (PFS), and overall response rate (ORR; Selected markers of tumour burden and immunological status
Disease outcome—patients, who provided informed consent, participated in a screening period of up to 28 days to establish eligibility. […]

The test system of assay [2] is advanced pancreatic cancer. The note with it: phase II trial, metastatic pancreatic cancer patients; gemcitabine therapy with or without addition of IMM-101 (background); cited from earlier work.

The structures appear in SMILES notation.

Regarding `Nc1ccn([C@@H]2O[C@H](CO)[C@@H](O)C2(F)F)c(=O)n1` [GEM, gemcitabine], the “patients with BOR of PD” value in assay [1] (PS2 patients) worked out at 2 patients. Further, the OS in assay [1] (pre-defined metastatic subgroup (84%)) was 4.4 months. Besides, the overall survival in assay [2] was 4.4 months.
